Test results: patent EP0838225A2, “Aqueous local anesthetic solution” (Hiji, Yasutake, priority 1996, dated 1998)

Columns and labels:
[1] = Turbidity and clearness of local anesthetic solutions from absorbance at 620 nm (Experimental Example 1); assay type: physicochemical; details: for OD (620 nm): absorbance at wavelength of 620 nm, CD added at equimolar concentration, pH as in label; for clearness (%) / turbidity (%): calculated from absorbance at 620 nm
Method: The turbidity and clearness of each inclusion compound solution were calculated from the absorbances thus obtained. […] In the same manner as above, OD (620 nm) was determined with respect to the obtained inclusion compound solution of each local anesthetic in cyclodextrin or a derivative thereof, and solutions of each local anesthetic. The turbidity and clearness of each inclusion compound solution were calculated from the absorbances thus obtained.

[2] = Absorbance at 620 nm and pH of solutions over time after stirring (Experimental Example 2); assay type: physicochemical; details: N=4; for pH: average; for absorbance at 620 nm: mean±S.E.
Method: The absorbance at wavelength 620 nm [OD(620 nm)] and pH of 0.4% dibucaine solution were determined using UV-visible recording spectrophotometer (UV-2100, Shimadzu Corporation). The solution was stirred, and OD (620 nm) and pH were determined at 5 min, 24 hr, 48 hr and 72 hr later.
OD (620 nm) and pH of the inclusion compound solution were determined in the same manner as above. The solution was stirred, and OD (620 nm) and pH were determined.
In the same manner as above, OD (620 nm) and pH of 1.0% tetracaine solution and an inclusion compound solution prepared by adding hydroxypropyl-β-cyclodextrin having an equimolar concentration to 1.0% tetracaine solution were determined. The solutions were stirred, and OD (620 nm) and pH were determined.
In the same manner as above, OD (620 nm) and pH of 0.5% bupivacaine solution and an inclusion compound solution prepared by adding α-cyclodextrin having an equimolar concentration to 0.5% bupivacaine solution were determined. The solutions were stirred, and OD (620 nm) and pH were determined.
The solutions were stirred, and OD (620 nm) and pH were determined.

[3] = tested on: abdominal giant nerve bundle of crayfish; assay: Anesthetic concentration versus action potential disappearance and recovery time (Experimental Example 7); assay type: cell-based, crayfish (Procambarus clarkii)
Excerpt: A local anesthetic effect is known to be stronger in alkaline range where pH value is greater.
In addition, the relationship between dibucaine concentration and neuroaction potential recovery time was examined at pH 7.4.

in vivo = details: mouse, sc, 40 mg/kg
Method: (§1) While local anesthetics are known to show inhibitory action on the central nerve cells at high concentrations, they show stimulating action at low concentrations. […] That is, 0.5 %dibucaine dissolved in physiological saline was subcutaneously injected into the back of 11 mice by 0.3 ml (40 mg/kg body weight), which were compared with 11 mice that underwent subcutaneous injection of a solution containing 0.5% dibucaine and α-cyclodextrin having an equimolar concentration, by 0.3 ml (40 mg/kg body weight).

mice = assay: in vivo; details: mouse, sc, 40 mg/kg
Method: as §1

OD (620 nm) [1] | clearness (%) [1] [%] | turbidity (%) [1] [%] | SMILES | pH ([2]; 5 min later) | absorbance at 620 nm ([2]; 5 min later) | pH ([2]; 24 hr later) | absorbance at 620 nm ([2]; 24 hr later) | pH ([2]; 48 hr later) | absorbance at 620 nm ([2]; 48 hr later) | pH ([2]; initial) | absorbance at 620 nm ([2]; initial) | pH ([2]; 72 hr later) | absorbance at 620 nm ([2]; 72 hr later) | action potential disappearance time (expression of anesthetic action) ([3]; 0.4% lidocaine, pH 7.5) [min] | action potential disappearance time (expression of anesthetic action) ([3]; 2% lidocaine, pH 6.5) [min] | dibucaine concentration at which action potential disappeared and recovered ([3]; pH 7.4) | mortality (in vivo) [%] | time to death from the injection (mice)
2.108 | 0 | 100 | CCCCN1CCCCC1C(=O)Nc1c(C)cccc1C (stereo not shown) [bupivacaine] | 7.20 | 0.087±0.015 | 6.89 | 0.659±0.084 | 6.77 | 0.247±0.061 | 5.44 | 0.000 |  |  |  |  |  |  | 
 |  |  | CCN(CC)CC(=O)Nc1c(C)cccc1C [lidocaine] | 7.09 | 1.045±0.242 | 7.05 | 0.717±0.152 | 7.10 | 0.382±0.044 | 4.59 | 0.006 | 7.12 | 0.595±0.086 | 2 | 80 |  |  | 
2.732 | 0 | 100 | CCCCNc1ccc(C(=O)OCCN(C)C)cc1 [tetracaine] | 7.12 | 0.517±0.024 | 7.04 | 0.411±0.024 | 7.05 | 0.386±0.015 | 5.49 | 0.000 | 7.05 | 0.301±0.025 |  |  |  |  | 

SMILES | OD (620 nm) [1] | clearness (%) [1] [%] | turbidity (%) [1] [%] | pH ([2]; 5 min later) | absorbance at 620 nm ([2]; 5 min later) | pH ([2]; 24 hr later) | absorbance at 620 nm ([2]; 24 hr later) | pH ([2]; 48 hr later) | absorbance at 620 nm ([2]; 48 hr later) | pH ([2]; initial) | absorbance at 620 nm ([2]; initial) | pH ([2]; 72 hr later) | absorbance at 620 nm ([2]; 72 hr later) | action potential disappearance time (expression of anesthetic action) ([3]; 0.4% lidocaine, pH 7.5) [min] | action potential disappearance time (expression of anesthetic action) ([3]; 2% lidocaine, pH 6.5) [min] | dibucaine concentration at which action potential disappeared and recovered ([3]; pH 7.4) | mortality (in vivo) [%] | time to death from the injection (mice)
CCCCOc1cc(C(=O)NCCN(CC)CC)c2ccccc2n1 [dibucaine] | 2.015 | 0 | 100 | 6.85 | 1.528±0.087 | 6.76 | 1.456±0.079 | 6.73 | 1.385±0.042 | 6.19 | 0.000 | 6.75 | 1.412±0.054 |  |  | 0.008%-0.05% | 91 | about 20 min
